Measured values published in PubChem BioAssay AID720589 (Broad Institute, 2013).
Active and inactive are the calls of the source.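 Rule for the calls: active = fitted curve drops below -35% activity at a concentration within twice the top valid tested dose; inconclusive = no clear call, values can overlap the other calls; inactive = signal rising instead of falling, among other cases.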

Assay: HepG2 hepatoma cell cytotoxicity, dose response, cytotoxicity control, CellTiter-Glo luminescence, cherry-pick, set 3 (AID 720589)
Settings: HepG2 viability, ATP luminescence (CellTiter-Glo), 72 h, active compounds read low
[1] = at 0.011 µM, 0% = untreated, negative = ATP loss
[2] = at 26 µM, 0% = untreated, negative = ATP loss
[3] = at 0.1 µM, 0% = untreated, negative = ATP loss
[4] = at 0.9 µM, 0% = untreated, negative = ATP loss
[5] = at 0.035 µM, 0% = untreated, negative = ATP loss
[6] = at 8 µM, 0% = untreated, negative = ATP loss
[7] = at 2.85 µM, 0% = untreated, negative = ATP loss
[8] = at 0.3 µM, 0% = untreated, negative = ATP loss

COc1ccccc1NS(=O)(=O)c1cc(NC(=O)c2cc3ccccc3oc2=O)ccc1C
max activity [1]: -20.4% (inactive)

CCN(CC)c1ccc(C2NC(=O)c3ccccc3N2)cc1 (stereo not drawn)
max activity [2]: -26.4% (inactive)

CC1(CCc2ccccc2)NC(=O)N(CC(=O)N2CC(=O)Nc3ccccc32)C1=O (stereo not drawn)
max activity [2]: -19.7% (inactive)

CC(=O)c1ccc(N=C2C(=O)Nc3ccccc32)cc1
max activity [3]: -37.4% (inactive)

C[C@@H]1CN([C@H](C)CO)C(=O)c2cc(NC(=O)CCCCCC(=O)Nc3ccccc3N)ccc2O[C@@H]1CN(C)Cc1ccc(Cl)c(Cl)c1
max activity [4]: 13.5% (inactive)

CC(=O)c1ccc(N=Nc2ccc(C)cc2)cc1
max activity [5]: -7.42% (inactive)

COC(=O)C[C@@H]1CC[C@@H]2[C@H](COc3ccc(NC(=O)Nc4ccc(C#N)cc4)cc3C(=O)N2C)O1
max activity [4]: -48.5% (inactive)

COC(=O)C[C@@H]1CC[C@@H]2[C@H](COc3ccc(NC(=O)c4ccccc4)cc3C(=O)N2C)O1
max activity [6]: -19.1% (inactive)

COc1ccc(C=NNc2nc3ccccc3s2)cc1
max activity [1]: -25.7% (inactive)

COC(=O)C[C@@H]1CC[C@@H]2[C@@H](COc3ccc(NC(=O)Nc4cccc(C#N)c4)cc3C(=O)N2C)O1
max activity [3]: -8.7% (inactive)

C[C@@H]1CN([C@@H](C)CO)C(=O)Cc2cc(N(C)C)ccc2O[C@@H]1CN(C)Cc1ccccc1
max activity [2]: -20.7% (inactive)

O=C1Nc2ccccc2C1=Nc1ccc(Br)cc1
max activity [3]: -11.9% (inactive)

COc1cc(/C=N/NS(=O)(=O)c2ccc(C)cc2)ccc1OCc1cccc(C(=O)O)c1
max activity [6]: -15.9% (inactive)

Cc1ccc(-c2ccc3c(c2)O[C@@H](CN(C)C(=O)Nc2ccc(F)cc2)[C@H](C)CN([C@@H](C)CO)S3(=O)=O)cc1
max activity [6]: -53.8% (inactive)

COC(=O)C[C@H]1CC[C@H]2[C@H](COc3ccc(NC(=O)Nc4cccc(Cl)c4)cc3C(=O)N2C)O1
max activity [1]: -21.5% (inactive)

C[C@@H]1CN([C@H](C)CO)C(=O)c2cc(C#CCc3ccccc3)cnc2O[C@@H]1CN(C)Cc1cccc(F)c1
max activity [7]: -31.8% (inactive)

Cc1cccc(NC(=O)CN2CCN(C(=O)CNC(=O)c3ccc(-c4ccccc4)cc3)CC2)c1C
max activity [2]: -36.3% (inactive)

O=C(CCCN1C(=O)S/C(=C\c2ccccc2)C1=O)NNC(=O)c1ccccc1O
max activity [2]: -21.8% (inactive)

Cc1c(Cl)cccc1NC(=O)CCC(=O)N/N=C/c1ccc[nH]1
max activity [4]: 21.7% (inactive)

CCOc1ccc(-c2noc(CCC(=O)O)n2)cc1
max activity [1]: 7.93% (inactive)

O=C(NCCc1ccccc1)c1ccccc1NC(=O)C1CCCO1 (stereo not drawn)
max activity [3]: -10.9% (inactive)

Cc1nn(Cc2ccccc2Cl)c2sc(C(=O)Nc3ccccc3N3CCOCC3)cc12
max activity [3]: 13.3% (inactive)

COc1ccc(/C=C(/C(=O)c2cccs2)N2C=CC=CC2=C(C#N)C#N)cc1
max activity [2]: -33.6% (inactive)

O=C(Nc1ccc(OC(=O)N2CCCCC2)cc1)N1CCOCC1
max activity (at 2.85 µM): -13.3% (inactive)

Nc1ccc(Oc2ccccc2-c2ccccc2)cc1
max activity [8]: -37% (inactive)

COc1ccc(/C=C2\SC(=O)N(CCCC(=O)Nc3ccc(C(=O)O)cc3)C2=O)cc1
max activity [5]: 21% (inactive)

O=C(O)c1ccc(N/N=C/c2ccc(OC(=O)c3cccc(Cl)c3)cc2)cc1
max activity [2]: -33.2% (inactive)

COc1ccccc1NC(=O)N1[C@@H]2CNC[C@H]1[C@@H]2c1ccc(-c2ccc(C#N)cc2)cc1
max activity [6]: -24.4% (inactive)

O=C(CN1C(=O)C(=O)c2ccccc21)c1ccc(Cl)cc1
max activity [7]: -20.2% (inactive)

CCOc1ccc(NC(=O)C(=O)N/N=C\c2ccc(CNS(=O)(=O)c3ccccc3)o2)cc1
max activity [8]: -36.6% (inactive)

CC(C)NC(=O)N(C)C[C@@H]1Oc2cc(C#Cc3ccc(F)cc3)ccc2S(=O)(=O)N([C@H](C)CO)C[C@H]1C
max activity [7]: -21.1% (inactive)

CC(C)(C)C(=O)Nc1ccc(N=Nc2ccccc2)cc1
max activity [8]: -12.3% (inactive)

O=C(O)c1cccc(N/N=C/c2cccs2)c1
max activity [2]: -13.2% (inactive)

COC(=O)C[C@@H]1CC[C@@H]2[C@@H](COc3ccc(NC(=O)Cc4cccs4)cc3C(=O)N2C)O1
max activity [7]: -25% (inactive)

CC(C)(C)c1ccc(/C=N/Nc2ccc(C(=O)O)cc2)cc1
max activity [1]: 17.4% (inactive)

O=C(CCCN1C(=O)/C(=C/c2ccccc2Cl)SC1=S)NNC(=O)c1ccc(Cl)cc1Cl
max activity [5]: -21.5% (inactive)

CCc1ccc(/C=C2\SC(=S)N(CCC(=O)Nc3cc(C)on3)C2=O)cc1
max activity [5]: -25.9% (inactive)

Cc1ccc(N2C(=O)c3cccc4c(N)ccc(c34)C2=O)c2cccnc12
max activity [2]: -20.7% (inactive)
